The values that follow are results of earlier work, collected in patent US20160228385A1, “PURIFIED CBD AND CBDA, AND METHODS, COMPOSITIONS AND PRODUCTS EMPLOYING CBD OR CBDA” (COLORADO CAN LLC, priority 2015, published 2016).

For this data set, the system named is human subjects seeking to quit smoking. The note with it: CBD administered via an inhaler, compared to no reduction with placebo inhaler.

SMILES strings stand for the structures.

As to `C=C(C)[C@@H]1CCC(C)=C[C@H]1c1c(O)cc(CCCCC)cc1O` [CBD, Cannabidiol], the “reduction of cigarette use” value is reported as 40%.
